Each block holds one compound with its values, some of them ahead of it.
Columns and labels:
CaMKK2 [1] = target: T1, CaMKK2 (Homo sapiens, UniProt Q96RR4); test: CaMKK1/2 biochemical assay, 32P radiometric kinase assay (CaMKK2); conditions: for inhibition at 0.5 µM: 0.5 μM compound, read-out: CaMKK2 % inhibition @ concentrations shown, 0.5 μM; for inhibition at 0.2 µM: 0.2 μM compound, read-out: CaMKK2 % inhibition @ concentrations shown, 0.2 μM; for inhibition at 10 µM: 10 μM compound, read-out: CaMKK2 % inhibition @ concentrations shown, 10 μM
Procedure: (§1) The following is an example of a CaMKK1/2-biochemical assay. Compounds were tested for CaMKK1/2 inhibition using a ^32P radiometric kinase assay as follows: A freshly prepared kinase reaction buffer (20 mM Hepes (pH 7.5), 10 mM MgCl2, 1 mM EGTA, 0.02% Brij35, 0.02 mg/ml BSA, 0.1 mM Na3VO4, 2 mM DTT, 1% DMSO) was treated with Myelin Basic Protein (final concentration=20 μM), CaCl2) (final concentration=1.5 mM), Calmodulin (final concentration=0.96 μM) and either CaMKK2 (final reaction concentration=120 nM) or CaMKK1 (final reaction concentration=150 nM) and gently mixed. Compounds were added as aliquots from 10 mM DMSO stock solutions such that the final compound concentration in the assay was either 10 μM, 0.5 μM or 0.2 μM. This mixture was allowed to incubate for 20 minutes at room temperature. ^32P-ATP (specific activity 10 μCi/μL) was added and the mixture was allowed to incubate for 2 hours at room temperature. The reaction mixture was spotted onto P81 ion exchange paper. The kinase activity was detected by the filter binding method.

CaMKK1 = CaMKK1 (Homo sapiens, UniProt Q8N5S9); test: CaMKK1/2 biochemical assay, 32P radiometric kinase assay (CaMKK1)
Procedure: as §1

CaMKK2 [2] = target: T1, CaMKK2; test: CaMKK1/2 biochemical assay, 32P radiometric kinase assay (CaMKK2)
ArH receptor = target: T2, ArH receptor (Homo sapiens, UniProt P35869); conditions: cited from earlier work
T2 sequence (P35869 11-848): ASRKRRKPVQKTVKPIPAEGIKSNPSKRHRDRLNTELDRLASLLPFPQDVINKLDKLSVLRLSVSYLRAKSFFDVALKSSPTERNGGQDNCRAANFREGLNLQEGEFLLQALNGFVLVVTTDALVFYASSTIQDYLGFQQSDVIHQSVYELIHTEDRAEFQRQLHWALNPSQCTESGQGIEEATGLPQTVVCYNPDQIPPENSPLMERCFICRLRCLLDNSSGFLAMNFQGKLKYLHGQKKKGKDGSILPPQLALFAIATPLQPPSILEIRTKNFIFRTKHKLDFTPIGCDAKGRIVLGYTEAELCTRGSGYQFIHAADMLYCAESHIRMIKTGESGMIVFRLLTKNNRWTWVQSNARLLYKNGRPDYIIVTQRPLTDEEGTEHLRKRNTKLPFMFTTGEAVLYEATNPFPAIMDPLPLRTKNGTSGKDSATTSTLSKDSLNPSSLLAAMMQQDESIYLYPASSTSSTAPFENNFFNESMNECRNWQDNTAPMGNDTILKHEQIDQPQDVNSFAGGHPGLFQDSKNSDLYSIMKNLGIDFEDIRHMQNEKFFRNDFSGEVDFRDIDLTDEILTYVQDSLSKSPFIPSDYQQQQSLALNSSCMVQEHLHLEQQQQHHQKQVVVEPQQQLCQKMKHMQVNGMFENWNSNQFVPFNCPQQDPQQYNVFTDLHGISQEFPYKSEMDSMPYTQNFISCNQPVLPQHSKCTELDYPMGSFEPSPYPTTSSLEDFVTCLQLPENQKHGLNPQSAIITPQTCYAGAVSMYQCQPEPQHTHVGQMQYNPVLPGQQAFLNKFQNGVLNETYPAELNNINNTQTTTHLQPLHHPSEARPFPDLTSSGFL

[3] = cited from earlier work
[4] = cited from earlier work; remark: listed apart in the source

SMILES: O=C1OCCN1c1ccc2[nH]nc(C#Cc3ccccn3)c2c1 [Example 12, 3-(3-(pyridin-2-ylethynyl)-1H-indazol-5-yl)oxazolidin-2-one]
Biochemical Data CaMKK2, inh @ 0.5 μM (CaMKK2 [1]): 52% inh @ 0.5 μM
inhibition at 0.5 µM (CaMKK2 [1]): 52%
Biochemical Data CaMKK1, inh @ 0.5 μM (CaMKK1): 14% inh @ 0.5 μM

SMILES: CCOC(=O)c1n[nH]c2ccc(N3CCOC3=O)cc12 [CL-629]
Biochemical Data CaMKK2, inh @ 0.5 μM (CaMKK2 [1]): 20% inh @ 0.5 μM
Biochemical Data CaMKK1, inh @ 0.5 μM (CaMKK1): <5% inh @ 0.5 μM

SMILES: O=C1CCCCN1c1ccc2[nH]nc(-c3cc4ccccc4[nH]3)c2c1 [Example 41, 1-(3-(1H-indol-2-yl)-1H-indazol-5-yl)piperidin-2-one]
Biochemical Data CaMKK2, inh @ 0.2 μM (CaMKK2 [1]): 12% inh @ 0.2 μM
inhibition at 0.2 µM (CaMKK2 [1]): 12%
Biochemical Data CaMKK1, inh @ 0.2 μM (CaMKK1): <5% inh @ 0.2 μM

SMILES: O=C1OCCN1c1ccc2[nH]nc(-c3ccc[nH]3)c2c1 [Example 22, 3-(3-(1H-pyrrol-2-yl)-1H-indazol-5-yl)oxazolidin-2-one]
Biochemical Data CaMKK2, inh @ 0.2 μM (CaMKK2 [1]): 37% inh @ 0.2 μM
inhibition at 0.2 µM (CaMKK2 [1]): 37%
Biochemical Data CaMKK1, inh @ 0.2 μM (CaMKK1): <5% inh @ 0.2 μM

SMILES: O=C1OCCN1c1ccc2[nH]nc(-c3ccncc3)c2c1 [Example 13, 3-(3-(pyridin-4-yl)-1H-indazol-5-yl)oxazolidin-2-one]
Biochemical Data CaMKK2, inh @ 0.5 μM (CaMKK2 [1]): 33% inh @ 0.5 μM
inhibition at 0.5 µM (CaMKK2 [1]): 33%
Biochemical Data CaMKK1, inh @ 0.5 μM (CaMKK1): 7% inh @ 0.5 μM

SMILES: C[C@@H]1COC(=O)N1c1ccc2[nH]nc(-c3cc4ccccc4[nH]3)c2c1 [Example 34, (R)-3-(3-(1H-indol-2-yl)-1H-indazol-5-yl)-4-methyloxazolidin-2-one]
inhibition at 0.2 µM (CaMKK2 [1]): 73%

SMILES: COc1ccc2[nH]c(-c3n[nH]c4ccc(N5CCOC5=O)cc34)cc2c1 [Example 20, 3-(3-(5-methoxy-1H-indol-2-yl)-1H-indazol-5-yl)oxazolidin-2-one]
inhibition at 0.2 µM (CaMKK2 [1]): 84%

SMILES: O=C1OCCN1c1ccc2[nH]nc(-c3cccnc3)c2c1 [Example 7, 3-(3-(pyridin-3-yl)-1H-indazol-5-yl)oxazolidin-2-one]
Biochemical Data CaMKK2, inh @ 0.5 μM (CaMKK2 [1]): 29% inh @ 0.5 μM
inhibition at 0.5 µM (CaMKK2 [1]): 29%
Biochemical Data CaMKK1, inh @ 0.5 μM (CaMKK1): <5% inh @ 0.5 μM

SMILES: COc1cccc2cc(-c3n[nH]c4ccc(N5CCOC5=O)cc34)[nH]c12 [Example 18, 3-(3-(7-methoxy-1H-indol-2-yl)-1H-indazol-5-yl)oxazolidin-2-one]
inhibition at 0.2 µM (CaMKK2 [1]): 61%

SMILES: O=C1OCCCN1c1ccc2[nH]nc(-c3cc4ccccc4[nH]3)c2c1 [Example 40, 3-(3-(1H-indol-2-yl)-1H-indazol-5-yl)-1,3-oxazinan-2-one]
Biochemical Data CaMKK2, inh @ 0.2 μM (CaMKK2 [1]): 37% inh @ 0.2 μM
inhibition at 0.2 µM (CaMKK2 [1]): 37%
Biochemical Data CaMKK1, inh @ 0.2 μM (CaMKK1): <5% inh @ 0.2 μM

SMILES: COc1ccc(/C=C/c2n[nH]c3ccc(N4CCOC4=O)cc23)cc1 [Example 31, (E)-3-(3-(4-methoxystyryl)-1H-indazol-5-yl)oxazolidin-2-one]
inhibition at 0.2 µM (CaMKK2 [1]): 81%
IC50 (CaMKK1): 536 nM
IC50 (CaMKK2 [2]): 33 nM

SMILES: O=C1OCCN1c1ccc2[nH]nc(-c3cc4ccc(Cl)cc4[nH]3)c2c1 [Example 15, 3-(3-(6-chloro-1H-indol-2-yl)-1H-indazol-5-yl)oxazolidin-2-one]
inhibition at 0.2 µM (CaMKK2 [1]): 85%

SMILES: O=C1OCCN1c1ccc2[nH]nc(/C=C/c3ccccn3)c2c1 [Example 4, (E)-3-(3-(2-(pyridin-2-yl)vinyl)-1H-indazol-5-yl)oxazolidin-2-one]
inhibition at 0.2 µM (CaMKK2 [1]): 55%
inhibition at 0.5 µM (CaMKK2 [1]): 81%
inhibition at 10 µM (CaMKK2 [1]): 98%
IC50 (CaMKK2 [2]): 190 nM

SMILES: C=Cc1n[nH]c2ccc(N3CCOC3=O)cc12 [Example 8, 3-(3-vinyl-1H-indazol-5-yl)oxazolidin-2-one]
Biochemical Data CaMKK2, inh @ 0.5 μM (CaMKK2 [1]): 26% inh @ 0.5 μM
inhibition at 0.5 µM (CaMKK2 [1]): 26%
Biochemical Data CaMKK1, inh @ 0.5 μM (CaMKK1): 12% inh @ 0.5 μM

SMILES: O=S1(=O)CCCN1c1ccc2[nH]nc(-c3cc4ccccc4[nH]3)c2c1 [Example 32, 2-(3-(1H-indol-2-yl)-1H-indazol-5-yl)isothiazolidine 1,1-dioxide]
inhibition at 0.2 µM (CaMKK2 [1]): 84%

SMILES: O=C1OC[C@H](c2ccccc2)N1c1ccc2[nH]nc(-c3cc4ccccc4[nH]3)c2c1 [Example 37, (S)-3-(3-(1H-indol-2-yl)-1H-indazol-5-yl)-4-phenyloxazolidin-2-one]
inhibition at 0.2 µM (CaMKK2 [1]): 74%

SMILES: CN(C)CCNC(=O)c1ccc(/C=C/c2n[nH]c3ccc(N4CCOC4=O)cc23)cc1 [Example 30, (E)-N-(2-(dimethylamino)ethyl)-4-(2-(5-(2-oxooxazolidin-3-yl)-1H-indazol-3-yl)vinyl)benzamide]
inhibition at 0.2 µM (CaMKK2 [1]): 75%

SMILES: C[C@H]1COC(=O)N1c1ccc2[nH]nc(-c3cc4ccccc4[nH]3)c2c1 [Example 33, (S)-3-(3-(1H-indol-2-yl)-1H-indazol-5-yl)-4-methyloxazolidin-2-one]
inhibition at 0.2 µM (CaMKK2 [1]): 90%

SMILES: O=C(O)c1ccc2c3c1cccc3c(=O)n1c3ccccc3nc21 [STO-609]
agonist of the ArH receptor (ArH receptor): 43 nM
brain entry ([3]; 9.4 mg/kg ip dose): fails to enter the brain
plasma concentrations ([3]; 9.4 mg/kg ip dose): > 30 µM
tissue Cmax values ([3]; tissue penetration, 9.4 mg/kg ip): ≤ 1 µM
elimination completed in ([3]; tissues): ≤ 8 h (h)
permeability [4]: poor permeability

SMILES: O=C(O)c1n[nH]c2ccc(N3CCOC3=O)cc12 [CL-628]
Biochemical Data CaMKK2, inh @ 0.5 μM (CaMKK2 [1]): 22% inh @ 0.5 μM
Biochemical Data CaMKK1, inh @ 0.5 μM (CaMKK1): <5% inh @ 0.5 μM

SMILES: O=C1OCCN1c1ccc2[nH]nc(-c3cc4cccc(Cl)c4[nH]3)c2c1 [Example 14, 3-(3-(7-chloro-1H-indol-2-yl)-1H-indazol-5-yl)oxazolidin-2-one]
inhibition at 0.2 µM (CaMKK2 [1]): 71%

Results, then the compound that gave them:

Biochemical Data CaMKK2, inh @ 0.5 μM (CaMKK2 [1]): 37% inh @ 0.5 μM
inhibition at 0.5 µM (CaMKK2 [1]): 37%
Biochemical Data CaMKK1, inh @ 0.5 μM (CaMKK1): <5% inh @ 0.5 μM
SMILES: O=C1OCCN1c1ccc2[nH]nc(-c3ccccc3)c2c1 [Example 6, 3-(3-phenyl-1H-indazol-5-yl)oxazolidin-2-one]

Biochemical Data CaMKK2, inh @ 0.2 μM (CaMKK2 [1]): 36% inh @ 0.2 μM
inhibition at 0.2 µM (CaMKK2 [1]): 36%
Biochemical Data CaMKK1, inh @ 0.2 μM (CaMKK1): <5% inh @ 0.2 μM
SMILES: O=C1OCCN1c1ccc2[nH]nc(-c3cccc(-c4ccccc4)c3)c2c1 [Example 26, 3-(3-([1,1′-biphenyl]-3-yl)-1H-indazol-5-yl)oxazolidin-2-one]

inhibition at 10 µM (CaMKK2 [1]): 98%
IC50 (CaMKK1): 164 nM
SMILES: O=C1OCCN1c1ccc2[nH]nc(-c3cc4ccccc4o3)c2c1 [Example 2, 3-(3-(Benzofuran-2-yl)-1H-indazol-5-yl)oxazolidin-2-one]

Biochemical Data CaMKK2, inh @ 0.2 μM (CaMKK2 [1]): 15% inh @ 0.2 μM
Biochemical Data CaMKK1, inh @ 0.2 μM (CaMKK1): <5% inh @ 0.2 μM
SMILES: O=C1OCCN1c1ccc2[nH]nc(-c3cccc4ccccc34)c2c1 [CL-666]

Biochemical Data CaMKK2, inh @ 0.2 μM (CaMKK2 [1]): 55% inh @ 0.2 μM
Biochemical Data CaMKK1, inh @ 0.2 μM (CaMKK1): <5% inh @ 0.2 μM
SMILES: O=C1OCCN1c1ccc2[nH]nc(-c3ccc4cc[nH]c4c3)c2c1 [CL-669]

inhibition at 10 µM (CaMKK2 [1]): 72%
SMILES: O=C1OCCN1c1ccc2[nH]nc(-c3coc4ccccc34)c2c1 [Example 1, 3-(3-(Benzofuran-3-yl)-1H-indazol-5-yl)oxazolidin-2-one]

Biochemical Data CaMKK2, inh @ 0.2 μM (CaMKK2 [1]): 41% inh @ 0.2 μM
inhibition at 0.2 µM (CaMKK2 [1]): 41%
Biochemical Data CaMKK1, inh @ 0.2 μM (CaMKK1): <5% inh @ 0.2 μM
SMILES: O=C1OCCN1c1ccc2[nH]nc(-c3ccc(Cl)cc3)c2c1 [Example 24, 3-(3-(4-chlorophenyl)-1H-indazol-5-yl)oxazolidin-2-one]

Biochemical Data CaMKK2, inh @ 0.2 μM (CaMKK2 [1]): 44% inh @ 0.2 μM
inhibition at 0.2 µM (CaMKK2 [1]): 44%
Biochemical Data CaMKK1, inh @ 0.2 μM (CaMKK1): <5% inh @ 0.2 μM
SMILES: O=C1OCCN1c1ccc2[nH]nc(-c3cccc(Cl)c3)c2c1 [Example 23, 3-(3-(3-chlorophenyl)-1H-indazol-5-yl)oxazolidin-2-one]

inhibition at 0.2 µM (CaMKK2 [1]): 80%
inhibition at 0.5 µM (CaMKK2 [1]): 94%
inhibition at 10 µM (CaMKK2 [1]): 100%
IC50 (CaMKK1): 141 nM
IC50 (CaMKK2 [2]): 70 nM
SMILES: O=C1OCCN1c1ccc2[nH]nc(-c3cc4ccccc4[nH]3)c2c1 [Example 3, 3-(3-(1H-indol-2-yl)-1H-indazol-5-yl)oxazolidin-2-one]
